Data taken from ChEMBL document CHEMBL1201862, “PubChem BioAssay data set” (2004).
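All cell lines were grown in 96-well plates and treated with compound for 48 hours. The concentration for 50% growth inhibition is given as GI50.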 Activity calls are given as the source filed them. Rule as the data show it: active = GI50 up to about 1.1 µM and inactive = higher.

Key:
Experiment in all cases: NCI tumour cell line growth inhibition, 48 h
[1] = system: A549
[2] = system: ACHN
[3] = system: MDA-N
[4] = system: UACC-257
[5] = system: 786-0
[6] = system: Malme-3M
[7] = system: SF-539
[8] = system: NCI-H226
[9] = system: SF-295
[10] = system: OVCAR-3
[11] = system: MCF7
[12] = system: MDA-MB-435
[13] = system: M19-MEL
[14] = system: HCT-116
[15] = system: HL-60
[16] = system: NCI/ADR-RES
[17] = system: SW-620
[18] = system: Hs-578T
[19] = system: SNB-19
[20] = system: IGROV-1

| Structure (SMILES) | GI50 [1] | GI50 [2] | GI50 [3] | GI50 [4] | GI50 [5] | GI50 [6] | GI50 [7] | GI50 [8] | GI50 [9] | GI50 [10] | GI50 [11] | GI50 [12] | GI50 [13] | GI50 [14] | GI50 [15] | GI50 [16] | GI50 [17] | GI50 [18] | GI50 [19] | GI50 [20] |
| --- | --- | --- | --- | --- | --- | --- | --- | --- | --- | --- | --- | --- | --- | --- | --- | --- | --- | --- | --- | --- |
| CC(C(=O)O)/C(=C\c1ccc2c(c1)OCO2)C(=O)O (stereo not given) | > 100 µM (inactive) | > 100 µM (inactive) | > 100 µM (inactive) | > 100 µM (inactive) | > 100 µM (inactive) | > 100 µM (inactive) | > 100 µM (inactive) | > 77.6 µM (inactive) | > 100 µM (inactive) | > 100 µM (inactive) | > 100 µM (inactive) | > 100 µM (inactive) | > 100 µM (inactive) | > 100 µM (inactive) | 0.0226 µM (active) | > 100 µM (inactive) | > 100 µM (inactive) | > 100 µM (inactive) | > 100 µM (inactive) | > 100 µM (inactive) |
| O=C1C(Cl)=C(N2CCN(CCOCCO)CC2)C(=O)c2ccccc21 | 18.7 µM (inactive) | 7.36 µM (inactive) | 2.18 µM (inactive) | 5.12 µM (inactive) | 11.7 µM (inactive) | 6.07 µM (inactive) | 18.9 µM (inactive) | 16.6 µM (inactive) | 18 µM (inactive) | 2.85 µM (inactive) | 3.56 µM (inactive) | 3.41 µM (inactive) | 3.82 µM (inactive) | 3.97 µM (inactive) | 1.67 µM (inactive) | 12.2 µM (inactive) | 1.72 µM (inactive) | 19.1 µM (inactive) | 23.8 µM (inactive) | 15.3 µM (inactive) |
| O=c1oc2ccccc2c(O)c1C(C/C(CCN1CCCC1)=N/O)c1ccccc1 (stereo not given) | > 100 µM (inactive) | > 100 µM (inactive) | > 100 µM (inactive) | > 100 µM (inactive) | > 100 µM (inactive) | > 100 µM (inactive) | > 100 µM (inactive) | > 100 µM (inactive) | > 100 µM (inactive) | > 100 µM (inactive) | > 100 µM (inactive) | > 100 µM (inactive) | > 100 µM (inactive) | > 100 µM (inactive) | > 31.6 µM (inactive) | > 100 µM (inactive) | > 100 µM (inactive) | > 100 µM (inactive) | > 100 µM (inactive) | > 100 µM (inactive) |
| CCN(CC)CCNc1ccc2ncn3c4ccc(OC)cc4c(=O)c1c23 | 2.91 µM (inactive) | 1.05 µM (active) | 5.18 µM (inactive) | 11.9 µM (inactive) | 2.22 µM (inactive) | 9.12 µM (inactive) | 4.24 µM (inactive) | 4.31 µM (inactive) | 2.28 µM (inactive) | 7.78 µM (inactive) | 57 µM (inactive) | 5.21 µM (inactive) | 3.73 µM (inactive) | 0.592 µM (active) | 3.49 µM (inactive) | 0.885 µM (active) | 1.36 µM (inactive) | 11.1 µM (inactive) | 3.76 µM (inactive) | 4.35 µM (inactive) |
